Bases are written 5' to 3'; sugars and linkages follow in the same order, as letters with counts (s phosphorothioate, o phosphodiester; PS: all linkages phosphorothioate). C may stand for cytosine or 5-methylcytosine; the collection does not tell. l = locked nucleic acid (LNA); d = 2'-deoxy (DNA)
target: HIF1A; experiment: HeLa, 100 nM transfected, 24 h, mean of 3; details: ASO

| Sequence | caspase activation (% of PBS control) |
| --- | --- |
| GTTACTGCCTTCTTAC (sugars l1 d10 l2 d1 l2, PS) | 136 |
| TGGCAAGCATCCTGTA (sugars l2 d1 l1 d10 l2, PS) | 501 |
| GCAAGCATCCTGT (sugars l1 d1 l1 d9 l1, PS) | 165 |
| TGGCAAGCATCCTGTA (sugars l1 d3 l1 d7 l4, PS) | 235 |
| TGGCAAGCATCCTGTA (sugars l1 d1 l2 d9 l3, PS) | 479 |
| CAAGCATCCTGTA (sugars l2 d1 l1 d8 l1, PS) | 123 |
| TGGCAAGCATCCTGTA (sugars l1 d2 l1 d8 l4, PS) | 398 |
| TGGCAAGCATCCTGTA (sugars ldldlddddddlddll, PS) | 178 |
| TGGCAAGCATCCTGTA (sugars lldllddddddddldl, PS) | 418 |
| TGGCAAGCATCCTGTA (sugars ldlldddddddldlll, PS) | 435 |
| CAAGCATCCTGTA (sugars l1 d1 l2 d6 l3, PS) | 134 |
| TGGCAAGCATCCTGTA (sugars l3 d1 l1 d9 l2, PS) | 382 |
| TGGCAAGCATCCTGTA (sugars l3 d8 l2 d1 l2, PS) | 414 |
| ACTGCCTTCTTAC (sugars ldldddddddldl, PS) | 208 |
| GTTACTGCCTTCTTAC (sugars l5 d6 l5, PS) | 624 |
| GGCAAGCATCCTG (sugars l2 d8 l3, PS) | 657 |
| GTTACTGCCTTCTTAC (sugars l1 d2 l1 d10 l2, PS) | 93.2 |
| CAAGCATCCTGTA (sugars l1 d1 l1 d9 l1, PS) | 121 |
| TGGCAAGCATCCTGTA (sugars l5 d6 l5, PS) | 445 |
| GTTACTGCCTTCTTAC (sugars l1 d3 l1 d8 l3, PS) | 174 |

| Sequence | caspase activation (% of PBS control) |
| --- | --- |
| TGGCAAGCATCCTGTA (sugars lldldddddddldlll, PS) | 423 |
| GTTACTGCCTTCTTAC (sugars lldlddddddddldll, PS) | 139 |
| CAAGCATCCTGTA (sugars l2 d1 l1 d7 l2, PS) | 133 |
| GTTACTGCCTTCTTAC (sugars ldldldddddddlldl, PS) | 280 |
| CAAGCATCCTGTA (sugars lddlddddddldl, PS) | 100 |
| GCAAGCATCCTGT (sugars l3 d7 l3, PS) | 600 |
| TGGCAAGCATCCTGTA (sugars ldllldddddddlddl, PS) | 419 |
| GGCAAGCATCCTG (sugars l3 d9 l1, PS) | 496 |
| GTTACTGCCTTCTTAC (sugars l5 d6 l1 d1 l3, PS) | 441 |
| TGGCAAGCATCCTGTA (sugars lddlldddddddlldl, PS) | 409 |
| TGGCAAGCATCCT (sugars lldlddddddldl, PS) | 369 |
| TGGCAAGCATCCTGTA (sugars l1 d2 l2 d9 l2, PS) | 380 |
| GTTACTGCCTTCTTAC (sugars ldlllddddddlldll, PS) | 410 |
| TTACTGCCTTCTT (sugars lddlddddddldl, PS) | 127 |
| GTTACTGCCTTCTTAC (sugars l1 d11 l1 d1 l2, PS) | 117 |
| GTTACTGCCTTCTTAC (sugars l2 d10 l2 d1 l1, PS) | 151 |
| GTTACTGCCTTCT (sugars ldldddddddldl, PS) | 108 |
| GTTACTGCCTTCTTAC (sugars l1 d10 l1 d2 l2, PS) | 102 |
| TGGCAAGCATCCTGTA (sugars l2 d1 l2 d8 l3, PS) | 407 |
| GGCAAGCATCCTG (sugars l1 d1 l1 d8 l2, PS) | 685 |
